According to US10143650B2, “Dispersion intended for encapsulating an active product and associated use” (CAPSUM, priority 2012, dated 2018):

What was measured:
[1] = partition coefficient of the active product between membrane phase and internal phase (octanol/water) and ratio R2 over membrane viscosity; format: physicochemical; settings: concentration in octanol over concentration in water
Protocol: The ratio of the partition coefficient Cp of the active product 20 between the membrane 18 and the internal drop 16 is obtained by determining the partition coefficient of this active product 20 between a homologous phase to the intermediate phase forming the membrane 18 and a homologous phase to the internal phase forming the internal drop 16. The ratio Cp is calculated with the following equation: Cp=K=[active in the membrane phase]/[active in the internal phase].
In particular, when the internal drop 16 is aqueous, and when the membrane 18 is oily, the ratio Cp may be estimated by using log P=log K with: Cp=K=[active in octanol]/[active in water].
Further, the value of log P (=log (K)) may be simply evaluated by means of easily accessible molecular modeling software packages on the Internet such as for example on www.molispiration.com, www.vcclab.org/lab/alogps/start.html.
Experimental determination is possible with the following method: an accurate amount of the active is weighed and solubilized in one of the two water or octanol phases. Two equivalent volumes of both phases are then put into contact with stirring. The concentrations of the active product in each of both phases are then measured after thermodynamic equilibrium of the system. This concentration measurement may for example be carried out by directly measuring the absorbance, if the molecule absorbs light, or by liquid chromatography. This measurement is for example carried out at 22° C.
The coefficient K is then determined experimentally by the ratio of the concentration of the active in octanol over that in water.

[2] = leakage of encapsulated active product into the continuous phase (optical absorbance versus time); format: physicochemical
From the text: FIG. 4 is a graph illustrating the absorbance in the continuous phase in a dispersion according to the invention, wherein an active absorbent product was encapsulated in the dispersed phase;
FIG. 5 is a view similar to FIG. 4 for a dispersion according to the invention containing another absorbent active product; and
FIGS. 4 and 5 respectively illustrate the ratio of optical absorbance in the continuous phase 14 versus time for respectively the dispersion of the first example containing dextran, and for the dispersion of the second example containing bovine serum albumin.

[3] = absorbance in continuous phase, after more than one week at 50° C., R1 0.38

Row | partition coefficient (K, Cp) of the active product [1] | leakage of active product from the dispersed bodies ([2]; R2 equal to 3.05, time and temperature not stated) | Compound | leakage of active product from the dispersed bodies [2, 3]
1 | 70.8 | leakage is observed | CCN(CC)c1ccc2c(-c3ccccc3C(=O)O)c3ccc(=[N+](CC)CC)cc-3oc2c1.[Cl-] [Rhodamine B] | –
2 | less than 10^−2 | – | dextran | no leakage

Row | Compound | partition coefficient (K, Cp) of the active product [1] | leakage of active product from the dispersed bodies ([2]; R2 equal to 3.05, time and temperature not stated) | leakage of active product from the dispersed bodies [2, 3]
3 | bovine serum albumin | less than 10^−3 | – | no leakage
